Measurements reported in ChEMBL document CHEMBL4152325, “Tacripyrimidines, the first tacrine-dihydropyrimidine hybrids, as multi-target-directed ligands for Alzheimer's disease” (Eur J Med Chem, 2018).
Activity calls are given as the source filed them. The rule behind the calls is not given here.

Columns and labels:
in vitro [1] = settings: human, HepG2 cells
Description: Cytotoxicity against human HepG2 cells assessed as cell viability at 10 uM after 24 hrs by CellTiter-Glo luminescence assay relative to control

in vitro [2] = settings: human, HepG2 cells; remark: listed apart in the source
Description: Cytotoxicity against human HepG2 cells assessed as cell viability at 300 uM after 24 hrs by CellTiter-Glo luminescence assay relative to control

Cholinesterase = Cholinesterase (Homo sapiens, UniProt P06276); experiment: Inhibition of recombinant human serum BChE using butyrylthiocholine as substrate pretreated for 20 mins followed by substrate addition by Ellman's method
in vitro [3] = settings: human, HepG2 cells; remark: listed apart in the source
Description: Cytotoxicity against human HepG2 cells assessed as cell viability at 100 uM after 24 hrs by CellTiter-Glo luminescence assay relative to control

Acetylcholinesterase [4] = molecular target: T1, Acetylcholinesterase (Homo sapiens, UniProt P22303); experiment: Inhibition of recombinant human AChE expressed in HEK293 cells using acetylthiocholine as substrate pretreated for 20 mins followed by substrate addition by Ellman's method; type: cell-based
Acetylcholinesterase [5] = molecular target: T1, Acetylcholinesterase; experiment: Potency index, ratio of tacrine IC50 to test compound IC50 for recombinant human AChE expressed in HEK293 cells; type: cell-based
Acetylcholinesterase [6] = molecular target: T1, Acetylcholinesterase; experiment: Non-competitive inhibition of recombinant human AChE expressed in HEK293 cells using varying levels of acetylthiocholine as substrate by Lineweaver-burk double reciprocal plot analysis; type: cell-based
Acetylcholinesterase [7] = molecular target: T1, Acetylcholinesterase; experiment: Non-competitive inhibition of recombinant human AChE expressed in HEK293 cells assessed as enzyme-substrate-inhibitor complex using varying levels of acetylthiocholine as substrate by Dixon plot analysis
[8] = molecular target: Amyloid-beta precursor protein (Homo sapiens) (UniProt P05067); experiment: Inhibition of HFIP-pretreated amyloid beta (1 to 42 residues) (unknown origin) self aggregation at 50 uM after 24 hrs by ThT-based fluorometric method relative to control
Sequence of Amyloid-beta precursor protein (Homo sapiens) (P05067 whole entry, the tested form may be a part): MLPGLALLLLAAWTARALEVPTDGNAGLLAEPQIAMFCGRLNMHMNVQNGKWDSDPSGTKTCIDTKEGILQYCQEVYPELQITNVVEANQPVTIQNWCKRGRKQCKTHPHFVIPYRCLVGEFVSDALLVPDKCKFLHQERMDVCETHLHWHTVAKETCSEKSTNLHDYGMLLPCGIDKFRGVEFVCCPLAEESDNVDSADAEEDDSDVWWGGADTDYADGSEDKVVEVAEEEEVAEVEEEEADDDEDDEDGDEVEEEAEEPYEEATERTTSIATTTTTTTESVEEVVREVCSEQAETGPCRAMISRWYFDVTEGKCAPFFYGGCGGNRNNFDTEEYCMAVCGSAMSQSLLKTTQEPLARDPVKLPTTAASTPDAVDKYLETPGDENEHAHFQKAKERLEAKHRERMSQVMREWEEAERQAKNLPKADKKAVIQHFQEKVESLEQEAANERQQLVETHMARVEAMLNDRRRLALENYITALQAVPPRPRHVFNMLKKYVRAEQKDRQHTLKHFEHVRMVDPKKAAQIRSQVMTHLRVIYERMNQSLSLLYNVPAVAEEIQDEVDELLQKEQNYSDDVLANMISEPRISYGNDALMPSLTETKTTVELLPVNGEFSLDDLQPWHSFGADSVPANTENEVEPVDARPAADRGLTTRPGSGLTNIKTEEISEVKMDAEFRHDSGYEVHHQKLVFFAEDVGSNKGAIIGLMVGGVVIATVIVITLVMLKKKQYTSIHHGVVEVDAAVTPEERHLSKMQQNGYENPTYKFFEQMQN

Sequence of Cholinesterase (P06276 whole entry): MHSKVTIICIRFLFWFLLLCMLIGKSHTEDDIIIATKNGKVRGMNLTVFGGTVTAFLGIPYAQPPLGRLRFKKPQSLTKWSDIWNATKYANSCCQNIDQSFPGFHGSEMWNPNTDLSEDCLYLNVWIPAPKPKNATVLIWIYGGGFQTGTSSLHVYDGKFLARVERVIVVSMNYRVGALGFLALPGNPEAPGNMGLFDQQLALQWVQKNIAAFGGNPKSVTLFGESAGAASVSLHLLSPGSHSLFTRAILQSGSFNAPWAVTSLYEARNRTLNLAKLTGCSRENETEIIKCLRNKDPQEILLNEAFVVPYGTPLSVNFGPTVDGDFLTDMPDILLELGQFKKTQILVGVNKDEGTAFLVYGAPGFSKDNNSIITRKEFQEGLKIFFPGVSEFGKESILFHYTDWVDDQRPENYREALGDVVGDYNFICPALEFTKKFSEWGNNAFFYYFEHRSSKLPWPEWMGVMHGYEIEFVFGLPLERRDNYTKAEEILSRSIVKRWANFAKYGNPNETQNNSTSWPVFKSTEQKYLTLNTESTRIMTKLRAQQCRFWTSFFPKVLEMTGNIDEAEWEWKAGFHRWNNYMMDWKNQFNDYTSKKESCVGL
T1 sequence (P22303 whole entry): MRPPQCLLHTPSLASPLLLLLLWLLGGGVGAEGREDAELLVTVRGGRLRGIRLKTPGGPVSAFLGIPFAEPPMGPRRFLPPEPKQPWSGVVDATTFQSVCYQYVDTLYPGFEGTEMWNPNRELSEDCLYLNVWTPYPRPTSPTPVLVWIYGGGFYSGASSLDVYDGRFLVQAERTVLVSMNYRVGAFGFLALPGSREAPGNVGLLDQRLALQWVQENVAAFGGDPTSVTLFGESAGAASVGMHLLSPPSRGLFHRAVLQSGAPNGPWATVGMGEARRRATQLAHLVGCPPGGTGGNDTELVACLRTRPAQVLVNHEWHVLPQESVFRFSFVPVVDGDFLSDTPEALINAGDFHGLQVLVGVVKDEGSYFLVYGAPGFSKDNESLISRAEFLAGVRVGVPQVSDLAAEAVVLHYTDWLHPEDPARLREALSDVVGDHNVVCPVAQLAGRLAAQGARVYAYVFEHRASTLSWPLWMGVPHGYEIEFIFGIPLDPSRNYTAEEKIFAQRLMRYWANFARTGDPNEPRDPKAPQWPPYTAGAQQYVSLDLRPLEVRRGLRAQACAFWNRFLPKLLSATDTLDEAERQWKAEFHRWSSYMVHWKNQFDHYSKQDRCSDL

SMILES | viability at 24 h, 10 µM (in vitro [1]) [%] | viability at 24 h, 300 µM (in vitro [2]) [%] | IC50 (Cholinesterase) [µM] | viability at 24 h, 100 µM (in vitro [3]) [%] | IC50 (Acetylcholinesterase [4]) [µM] | Ratio IC50 (Acetylcholinesterase [5]) | inhibition (Acetylcholinesterase [6]) | Ki (Acetylcholinesterase [7]) [µM] | inhibition [8] [%]
COc1ccccc1C1NC(=S)Nc2nc3c(c(N)c21)CCCC3 (stereo not drawn) | 98.1 | 68.1 | 11.7 | 81.1 | 31.2 | – | – | – | –
Cc1ccc(C2NC(=S)Nc3nc4c(c(N)c32)CCCC4)cc1 (stereo not drawn) | 90.6 | 45.2 | 3.47 | 62 | 23.8 | – | – | – | –
Nc1c2c(nc3c1C(c1cccc(Br)c1)NC(=S)N3)CCCC2 (stereo not drawn) | 103 | 62.3 | 1.27 | 76.8 | 0.0373 | 9.4 to 10 | Active | 0.147 | 10
COc1cccc(C2NC(=S)Nc3nc4c(c(N)c32)CCCC4)c1 (stereo not drawn) | 100 | 97.5 | 3.19 | 102 | 3.05 | – | Active | 3.88 | 10
Nc1c2c(nc3c1C(c1cccc([N+](=O)[O-])c1)NC(=S)N3)CCCC2 (stereo not drawn) | 102 | 82.7 | 2.68 | 96.5 | 29.8 | – | – | – | –
CN(C)c1ccc(C2NC(=S)Nc3nc4c(c(N)c32)CCCC4)cc1 (stereo not drawn) | 87.3 | 78.9 | 154 | 82.5 | 24.1 | – | – | – | –
Nc1c2c(nc3c1C(c1ccc(Cl)cc1)NC(=S)N3)CCCC2 (stereo not drawn) | 80 | 9 | 0.372 | 27.9 | 5.28 | – | – | – | 10
COc1ccc(C2NC(=S)Nc3nc4c(c(N)c32)CCCC4)cc1 (stereo not drawn) | 97.9 | 77.6 | 1.75 | 100 | 7.64 | – | – | – | –
Nc1c2c(nc3c1C(c1ccc4c(c1)OCO4)NC(=S)N3)CCCC2 (stereo not drawn) | 103 | 64.1 | 37.5 | 91.2 | 8.18 | – | – | – | –
Nc1c2c(nc3c1C(c1ccccc1)NC(=S)N3)CCCC2 (stereo not drawn) | 105 | 68.2 | 5.68 | 97.2 | 10.8 | – | – | – | –
Nc1c2c(nc3c1C(c1ccc(F)cc1)NC(=S)N3)CCCC2 (stereo not drawn) | 104 | 72.5 | 10 | 79.1 | 31 | – | – | – | –
Cc1cccc(C2NC(=S)Nc3nc4c(c(N)c32)CCCC4)c1 (stereo not drawn) | 97.6 | 68.1 | 2.65 | 82.5 | 10.1 | – | – | – | –
